# Tested on: substance P induced relaxation of the pig coronary arteries
# Test: Antagonism of substance P induced relaxation of the pig coronary arteries
# Format: cell-based
# Details: Sus scrofa, 0.5 h; test compound 1 × 10^-8; response to 10^-9 M substance P; 30 min incubation
# Description: Antagonism of substance P induced relaxation of the pig coronary arteries
# Segments of coronary arteries taken from pigs (killed by injection of an overdose of sodium pentobarbital) were inverted and mounted for recording of isometric tension in organ baths (volume 20 ml) with the endothelium at the outside. The preparations were bathed in Krebs - Henseleit solution. The solution was kept at 37° C. and gassed with a mixture of O2 /CO2 (95/5). After stabilisation of the preparations, prostaglandin F2α (10^-5 M) was administered to induce a contraction. This was repeated until contractile responses became stable. Then prostaglandin F2α was again administered and substance P (3×10^-10 M and 10^-9 M cumulatively) was added. […] After washing away the agonists, a known concentration of a compound of formula (I) was added. After an incubation period of 30 minutes, prostaglandin F2α (10^-5 M) and the same concentrations of substance P as described above were again administered in the presence of the compound to be tested.
row,Compound,inhibition at 0.01 µM
1,Cc1cc(C)cc(C(=O)N2CC[C@@H](N3CCC(Nc4nc5ccccc5n4Cc4cccs4)CC3)C[C@@H]2Cc2ccccc2)c1 (relative stereo) [Compound 8],14.7%

# Same assay, conditions: Sus scrofa, 0.5 h; test compound 3 × 10^-7; response to 10^-9 M substance P; 30 min incubation
row,Compound,inhibition at 0.3 µM
1,Cc1cc(C)cc(C(=O)N2CC[C@H](N3CCC(Nc4nc5ccccc5n4Cc4ccccc4F)CC3)C[C@@H]2Cc2ccccc2)c1 (relative stereo) [Compound 3],35.2%

# Same assay, conditions: Sus scrofa, 0.5 h; test compound 3 × 10^-8; response to 10^-9 M substance P; 30 min incubation
row,Compound,inhibition at 0.03 µM
1,CCOCCn1c(NC2CCN([C@H]3CCN(C(=O)c4cc(C)cc(C)c4)[C@@H](Cc4ccccc4)C3)CC2)nc2ccccc21 (relative stereo) [Compound 1],15%
2,CCOCCn1c(NC2CCN([C@@H]3CCN(C(=O)c4cc(C)cc(C)c4)[C@@H](Cc4ccccc4)C3)CC2)nc2ccccc21 (relative stereo) [Compound 2],41.1%
3,Cc1cc(C)cc(C(=O)N2CC[C@@H](N3CCC(Nc4nc5ccccc5n4Cc4ccccc4F)CC3)C[C@@H]2Cc2ccccc2)c1 (relative stereo) [Compound 4],10.2%
4,CCOCCn1c(NC2CCN([C@H]3CCN(C(=O)c4cc(C(F)(F)F)cc(C(F)(F)F)c4)[C@@H](Cc4ccccc4)C3)CC2)nc2ccccc21 (relative stereo) [Compound 5],80.7%
5,"CCOCCn1c(NC2CCN([C@@H]3CCN(C(=O)c4cc(C(F)(F)F)cc(C(F)(F)F)c4)[C@@H](Cc4ccccc4)C3)CC2)nc2ccccc21 (relative stereo) [Compound 6, (±)-trans-1-[1,3-bis(trifluoromethyl)-benzoyl]-4-[4-[[1-(2-ethoxyethyl)-1H-benzimidazol-2-yl]amino]-1-piperidinyl]-2-(phenylmethyl)piperidine]",85.3%
6,Cc1cc(C)cc(C(=O)N2CC[C@H](N3CCC(Nc4nc5ccccc5n4Cc4cccs4)CC3)C[C@@H]2Cc2ccccc2)c1 (relative stereo) [Compound 7],54%
7,Cc1cc(C)cc(C(=O)N2CC[C@H](N3CCC(Nc4nc5ccccc5n4Cc4cscn4)CC3)C[C@@H]2Cc2ccccc2)c1 (relative stereo) [Compound 9],78.1%
8,Cc1cc(C)cc(C(=O)N2CC[C@@H](N3CCC(Nc4nc5ccccc5n4Cc4cscn4)CC3)C[C@@H]2Cc2ccccc2)c1 (relative stereo) [Compound 10],89.3%
9,Cc1cc(C)cc(C(=O)N2CC[C@H](N3CCC(Cc4nc5ccccc5n4Cc4csc(C)n4)CC3)C[C@@H]2Cc2ccccc2)c1 (relative stereo) [Compound 11],81.1%
10,Cc1cc(C)cc(C(=O)N2CC[C@@H](N3CCC(Cc4nc5ccccc5n4Cc4csc(C)n4)CC3)C[C@@H]2Cc2ccccc2)c1 (relative stereo) [Compound 12],92.3%
11,Cc1ncc(Cn2c(NC3CCN([C@H]4CCN(C(=O)c5cc(C(F)(F)F)cc(C(F)(F)F)c5)[C@@H](Cc5ccccc5)C4)CC3)nc3ccccc32)o1 (relative stereo) [Compound 15],84.6%
12,Cc1ncc(Cn2c(NC3CCN([C@@H]4CCN(C(=O)c5cc(C(F)(F)F)cc(C(F)(F)F)c5)[C@@H](Cc5ccccc5)C4)CC3)nc3ccccc32)o1 (relative stereo) [Compound 16],88.8%
13,Cc1nc(C)c(Cn2c(NC3CCN([C@H]4CCN(C(=O)c5cc(C(F)(F)F)cc(C(F)(F)F)c5)[C@@H](Cc5ccccc5)C4)CC3)nc3cccnc32)o1 (relative stereo) [Compound 17],94.5%
14,O=C(c1cc(C(F)(F)F)cc(C(F)(F)F)c1)N1CC[C@H](N2CCC(Oc3nc4ccccc4n3Cc3ccc(F)cc3)CC2)C[C@@H]1Cc1ccccc1 (relative stereo) [Compound 24],100%
15,O=C(c1cc(C(F)(F)F)cc(C(F)(F)F)c1)N1CC[C@@H](N2CCC(Oc3nc4ccccc4n3Cc3ccc(F)cc3)CC2)C[C@@H]1Cc1ccccc1 (relative stereo) [Compound 25],100%
16,O=C(c1cc(C(F)(F)F)cc(C(F)(F)F)c1)N1CC[C@H](N2CCC(Nc3nc4ccccc4n3Cc3ccc(F)cc3)CC2)C[C@@H]1Cc1ccccc1 (relative stereo) [Compound 26],82.2%
17,O=C(c1cc(C(F)(F)F)cc(C(F)(F)F)c1)N1CC[C@@H](N2CCC(Nc3nc4ccccc4n3Cc3ccc(F)cc3)CC2)C[C@@H]1Cc1ccccc1 (relative stereo) [Compound 27],92.8%
18,Cc1ccc(Cn2c(NC3CCN([C@@H]4CCN(C(=O)c5cc(C(F)(F)F)cc(C(F)(F)F)c5)[C@H](Cc5ccccc5)C4)CC3)nc3ccccc32)o1 (relative stereo) [Compound 28],100%
19,Cc1ccc(Cn2c(NC3CCN([C@@H]4CCN(C(=O)c5cc(C(F)(F)F)cc(C(F)(F)F)c5)[C@@H](Cc5ccccc5)C4)CC3)nc3ccccc32)o1 (relative stereo) [Compound 29],65.6%
20,O=C(c1cc(C(F)(F)F)cc(C(F)(F)F)c1)N1CC[C@@H](N2CCC(Sc3nc4ccccc4n3Cc3ccc(F)cc3)CC2)C[C@@H]1Cc1ccccc1 (relative stereo) [Compound 35],88.5%
21,O=C(c1cc(C(F)(F)F)cc(C(F)(F)F)c1)N1CC[C@@H](N2CCC(Cc3nc4ccccc4n3Cc3ccc(F)cc3)CC2)C[C@H]1Cc1ccccc1 (relative stereo) [Compound 40],93.3%
22,Cc1ccc(Cn2c(CC3CCN([C@@H]4CCN(C(=O)c5cc(C(F)(F)F)cc(C(F)(F)F)c5)[C@H](Cc5ccccc5)C4)CC3)nc3ccccc32)o1 (relative stereo) [Compound 42],96.9%
23,O=C(c1cc(C(F)(F)F)cc(C(F)(F)F)c1)N1CC[C@@H](N2CCC(Nc3nc4ccccc4n3Cc3ccc(CO)o3)CC2)C[C@@H]1Cc1ccccc1 (relative stereo) [Compound 43],85.2%
24,O=C(c1cc(C(F)(F)F)cc(C(F)(F)F)c1)N1CC[C@@H](N2CCC(Nc3nc4ccccc4n3Cc3ccc(CO)o3)CC2)C[C@H]1Cc1ccccc1 (relative stereo) [Compound 44],91.5%

# Same assay, conditions: Sus scrofa, 0.5 h; test compound 3 × 10^-9; response to 10^-9 M substance P; 30 min incubation
row,Compound,inhibition at 0.003 µM
1,"Cc1ncc(Cn2c(NC3CCN([C@@H]4CCN(C(=O)Nc5cc(C(F)(F)F)cc(C(F)(F)F)c5)[C@@H](Cc5ccccc5)C4)CC3)nc3ccccc32)o1 (racemic) [Compound 52, (±)-trans-N-[3,5-bis(trifluoromethyl)phenyl]-4-[4-[[1-[(2-methyl-5-oxazolyl)methyl]-1H-benzimidazol-2-yl]amino]-1-piperidinyl]-2-(phenylmethyl)-1-piperidinecarboxamide]",6.3%
2,Cc1nc(C)c(Cn2c(NC3CCN([C@@H]4CCN(C(=O)c5cc(C(F)(F)F)cc(C(F)(F)F)c5)[C@@H](Cc5ccccc5)C4)CC3)nc3cccnc32)o1 (relative stereo) [Compound 18],73.7%
3,Cc1ccc(Cn2c(NC3CCN([C@H]4CCN(C(=O)c5cc(C(F)(F)F)cc(C(F)(F)F)c5)[C@@H](Cc5ccccc5)C4)CC3)nc3cccnc32)o1 (relative stereo) [Compound 19],79.5%
4,Cc1ccc(Cn2c(NC3CCN([C@@H]4CCN(C(=O)c5cc(C(F)(F)F)cc(C(F)(F)F)c5)[C@@H](Cc5ccccc5)C4)CC3)nc3cccnc32)o1 (relative stereo) [Compound 20],68.9%
5,Cc1cc(C)cc(C(=O)N2CC[C@@H](N3CCC(Nc4nc5ccccc5n4Cc4ccc(C)o4)CC3)C[C@@H]2Cc2ccccc2)c1 (relative stereo) [Compound 32],20.1%
6,O=C(c1cc(C(F)(F)F)cc(C(F)(F)F)c1)N1CC[C@@H](N2CCC(Cc3nc4ccccc4n3Cc3ccc(F)cc3)CC2)C[C@@H]1Cc1ccccc1 (relative stereo) [Compound 33],56.8%
7,Cc1ncc(Cn2c(OC3CCN([C@@H]4CCN(C(=O)c5cc(C(F)(F)F)cc(C(F)(F)F)c5)[C@H](Cc5ccccc5)C4)CC3)nc3ccccc32)o1 (relative stereo) [Compound 36],66%
8,Cc1ncc(Cn2c(OC3CCN([C@@H]4CCN(C(=O)c5cc(C(F)(F)F)cc(C(F)(F)F)c5)[C@@H](Cc5ccccc5)C4)CC3)nc3ccccc32)o1 (relative stereo) [Compound 37],70.5%
9,Cc1ccc(Cn2c(CC3CCN([C@@H]4CCN(C(=O)c5cc(C(F)(F)F)cc(C(F)(F)F)c5)[C@@H](Cc5ccccc5)C4)CC3)nc3ccccc32)o1 (relative stereo) [Compound 41],82.6%
10,Cc1ncc(Cn2c(N[C@@H]3CCN(C(=O)c4ccc5ccccc5c4)[C@@H](Cc4ccccc4)C3)nc3ccccc32)o1 (relative stereo) [Compound 45],13.1%
11,Cc1ncc(Cn2c(N[C@@H]3CCN(C(=O)c4ccco4)[C@@H](Cc4ccccc4)C3)nc3ccccc32)o1 (relative stereo) [Compound 46],17.6%
12,Cc1ncc(Cn2c(NC3CCN([C@@H]4CCN(C(=O)c5cc(Cl)cc(Cl)c5)[C@@H](Cc5ccccc5)C4)CC3)nc3ccccc32)o1 (relative stereo) [Compound 55],28.1%
13,Cc1ncc(Cn2c(NC3CCN([C@@H]4CCN(C(=O)c5cccs5)[C@@H](Cc5ccccc5)C4)CC3)nc3ccccc32)o1 (relative stereo) [Compound 56],8.7%
14,Cc1ncc(Cn2c(NC3CCN([C@@H]4CCN(C(=O)c5sc(C)nc5C)[C@H](Cc5ccccc5)C4)CC3)nc3ccccc32)o1 (relative stereo) [Compound 65],9.7%
15,CCOCCn1c(N[C@@H]2CCN(C(=O)c3cc(C(F)(F)F)ccc3C(F)(F)F)[C@@H](Cc3ccc(Cl)cc3)C2)nc2ccccc21 (relative stereo) [Compound 144],88.4%
